This is an account of results in PubChem BioAssay AID1417 (Emory University Molecular Libraries Screening Center, 2008).

This assay addresses Induced myeloid leukemia cell differentiation protein Mcl-1 (Homo sapiens) (UniProt Q07820). In words: Mcl-1 Noxa peptide disruption concentration-response – biochemical, TR-FRET, dose response (AID 1417). As to conditions: Mcl-1/Noxa peptide interaction, cell-free TR-FRET (terbium/rhodamine), 2 h; measured here: absolute IC50.

Each structure is given as a SMILES string. pIC50: −log10 of the molar value. Some results are limits rather than exact numbers.

Sequence of Induced myeloid leukemia cell differentiation protein Mcl-1 (Homo sapiens) (Q07820 whole entry, looked up): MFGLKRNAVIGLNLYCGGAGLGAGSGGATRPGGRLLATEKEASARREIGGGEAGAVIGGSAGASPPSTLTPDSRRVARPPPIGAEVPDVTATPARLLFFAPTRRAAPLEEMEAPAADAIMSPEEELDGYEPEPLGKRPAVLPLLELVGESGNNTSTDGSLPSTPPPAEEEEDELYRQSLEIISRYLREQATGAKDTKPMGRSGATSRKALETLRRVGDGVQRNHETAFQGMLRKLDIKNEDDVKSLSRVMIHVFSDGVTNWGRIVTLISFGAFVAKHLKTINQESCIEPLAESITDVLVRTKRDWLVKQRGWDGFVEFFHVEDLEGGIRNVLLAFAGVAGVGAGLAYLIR

Take `O=C(CSc1nnc(COc2ccccc2Cl)o1)NC(=O)NCc1ccco1`: the pIC50 is 5.07. The compound `CCCCN1C(=O)/C(=C/C=C/c2ccco2)C(=O)NC1=S` gave a pIC50 of 6.26. `Oc1ccc(N=Nc2cccc(Cl)c2)cc1C=Nc1ccc(N2CCOCC2)cc1` had a pIC50 of under 4.27. `CC(C)CC1NC(=O)N(CC(=O)N2c3ccccc3NC(=O)C2(C)C)C1=O` (stereo not given) had a negative-log IC50 (pIC50) of under 4.27.

For the compound `CCN1c2ccccc2N(C)C1(C)c1ccccc1` (stereo not given), the pIC50 is 5.29.

On to `COc1cc(SC)ccc1C(=O)N1CCN(c2ccccc2)CC1`, for which the pIC50 is under 4.27. Regarding `O=C1NC(=S)S/C1=C\c1ccc(SCc2ccco2)o1`, the pIC50 is over 6.40. Compound `CCc1ccc(S(=O)(=O)/N=C2\C=CC(=O)c3ccccc32)cc1` gave a pIC50 of over 6.40.

Turning to `O=C(COC(=O)c1cc(-c2ccco2)nc2ccccc12)NCc1ccc2c(c1)OCO2`, the pIC50 was 4.53. As for `CCOc1ccc(NC(=O)N(CCN2CCOCC2)Cc2ccc3c(c2)CCCN3CC)cc1`, the pIC50 is 6.02. Regarding `Cc1[nH]c2ccccc2c1/C=N/Nc1ccc([N+](=O)[O-])cc1`, the pIC50 is 6.12. `COc1cc(/C=N\Nc2nc(-c3cccs3)c(NC(C)=O)s2)ccc1O` had a pIC50 of over 6.40. The same measure for `C=CCn1c(C)cc(C(=O)Cn2ncc(Cl)c(Cl)c2=O)c1C`: 5.51; for `Cc1ccc(C(=O)OCC(=O)Nc2ccc(N(C)C)cc2)cc1NC(=O)c1ccco1`: under 4.27; for `O=C1CC(N2CCN(S(=O)(=O)c3ccccc3)CC2)C(=O)N1c1ccccc1` (stereo not given): under 4.27.

`Oc1ccccc1C1Nc2cccc3cccc(c23)N1` had a pIC50 of 5.18. `CC1Oc2cc3c(-c4c(O)cc(O)c5c(O)c6c(cc45)OC(C)C(C)C6=O)c(O)cc(O)c3c(O)c2C(=O)C1C` (stereo not given): the pIC50 is over 6.40. With `Cn1c(=O)c(C(=O)COC(=O)c2cc(-c3ccco3)nc3ccccc23)c(N)n(CC2CC2)c1=O`, the pIC50 was 6.35. The compound `CNC(=O)NC1CCCc2ccccc21` (stereo not given) gave a pIC50 of under 4.27. On to `CN(C)c1ccc(NC(=O)c2cccc(N3C(=O)C4C5C=CC(C5)C4C3=O)c2)cc1` (stereo not given), for which the pIC50 is under 4.27. The same measure for `C/C(=N\NC(=O)c1cccc(N/N=C(\C)c2cc(O)ccc2O)c1)c1cc(O)ccc1O`: over 6.40; for `CCOC(=O)/C=C(\C)Sc1cc(O)c2ccccc2c1O`: over 6.40. As to `COCCN=c1scc(-c2cccs2)n1/N=C/c1ccc(O)c(O)c1O`, the pIC50 is 5.36. Consider `Cc1nnc(Sc2cc(NCCO)c([N+](=O)[O-])c3nonc23)s1`, for which the pIC50 was over 6.40.

On to `CC(=O)c1ccc(NC(=O)CC2Nc3cccc4cccc(c34)NC2=O)cc1` (stereo not given), for which the pIC50 was 5.44. Turning to `COC(=O)CSc1ncnc2c1sc1nc(-c3ccco3)c3c(c12)CC(C)(C)OC3`, the pIC50 is 5.45. `Cc1cccc2c1c1ccc3c(c1n2C)C(=O)C=CC3=O` gave a pIC50 of over 6.40.

As for `COc1cc(C2Nc3cccc4cccc(c34)N2)cc(OC)c1OC(C)=O`, the pIC50 is 5.61.

With `O=C(Nc1ccc(S(=O)(=O)Nc2nccs2)cc1)/C(=C/c1ccccc1Cl)NC(=O)c1ccccc1`, the pIC50 was 5.53. `CCCCn1c(-c2ccc(Cl)cc2)nc2c(=O)n(C)c(=O)[nH]c21`: the pIC50 is under 4.27. In the case of `CCc1ccc(NC(=O)N(CCN2CCOCC2)Cc2ccc3c(c2)CCCN3CC)cc1`, the pIC50 was under 4.27. `COc1cc(O)c(C(=O)O)c(-c2cc(O)c(O)cc2C)c1` gave a pIC50 of over 6.40. In turn, `O=C(/C=C/c1ccc(Cl)c([N+](=O)[O-])c1)Nc1ccc(N2CCCC2)cc1` gave a pIC50 of 5.08. `CCOc1ccc2nc(N3C(=O)/C(=C/c4ccc(Cl)cc4)NC3=S)sc2c1` showed a pIC50 of 5.81.

For `COc1cc(/C=C2/C(=O)c3cccc([N+](=O)[O-])c3C2=O)c(Br)cc1O`, the pIC50 is over 6.40. Take `Cc1c(O)ccc(/C=N/Nc2nc(-c3cccnc3)nc3ccccc23)c1O`: the pIC50 is over 6.40. The same measure for `CC(=O)c1cc(C#N)c(SCc2ccccn2)nc1C`: under 4.27; for `COc1ccc(NC(=O)CSc2ncnc3c2sc2ccccc23)c(OC)c1`: under 4.27; for `O=Cc1[nH]c2ccccc2c1N(C(=O)CCl)c1ccc([N+](=O)[O-])cc1`: under 4.27. With `O=C(Nc1nc(-c2ccco2)c(-c2ccco2)s1)C1CC(=O)N(c2ccc3c(c2)OCCO3)C1` (stereo not given) the figure was 5.26. With `CCN(CC)c1ccc(NC(=O)Nc2cccc(C(C)=O)c2)cc1` the figure was under 4.27; with `O=c1/c(=C/c2ccc(O)c([N+](=O)[O-])c2)sc2nc3ccccc3n12`, 5.37. For the compound `CN(C)c1ccc(NC(=O)Nc2ccc3snnc3c2)cc1`, the pIC50 is over 6.40. On to `CC(=O)N(C1=C(Cl)C(=O)c2ccccc2C1=O)C1CCCCC1`, for which the pIC50 was over 6.40. On to `O=C(O)c1ccc(-n2cccc2/C=N\NC(=O)c2cc3cc(Br)ccc3o2)cc1`, for which the pIC50 is 6.04. Regarding `CCN(c1ccc(NC(=O)COC(=O)c2cccs2)cc1)C(C)C`, the pIC50 was under 4.27. As to `COc1cc(-c2ccc(Nc3ccccc3C(=O)O)c(OC)c2)ccc1Nc1ccccc1C(=O)O`, the pIC50 is over 6.40. For `CN1CCN(c2ccc([N+](=O)[O-])cc2/C=N/NC(=O)c2cccc([N+](=O)[O-])c2)CC1`, the pIC50 is 5.85. For the compound `O=C(O)c1ccccc1N/N=C/c1c(Sc2nnnn2-c2ccccc2)nc2ccccn2c1=O`, the pIC50 was over 6.40.

On to `CC(=O)C1=C(S(=O)(=O)c2ccc(C)cc2)CS(=O)(=O)C1`, for which the pIC50 was over 6.40. The same measure for `CC(C)(C)C1=CC=C(C(C)(C)C)C(=O)C1=O`: over 6.40; for `Cc1c(Cc2ccccc2)c(NCCN(C)C)n2c(nc3ccccc32)c1C#N`: 5.72; for `C=C(C)C(=O)Nc1cccc(C2=NOC3(C2)C[C@@H](C(N)=O)N(C(=O)/C=C/C=C/C)C3)c1` (stereo not given in full): over 6.40. For the compound `CC(=O)Nc1sc(N/N=C/c2ccc(O)cc2)nc1-c1ccc(C)cc1`, the pIC50 was 5.43. Regarding `O=C(N/N=C/c1ccc(O)c(O)c1)c1ccc(CSc2cccc3cccnc23)cc1`, the pIC50 is 5.51. Compound `O=C(O)CSc1cc(C(=O)c2ccccc2O)cn2c(=O)c3c4c(sc3nc12)CCCC4` showed a pIC50 of 5.47. With `Oc1cc2c(cc1O)C1c3ccc(O)c(O)c3OCC1(O)C2` (stereo not given) the figure was over 6.40; with `Cc1ccc(/C=c2\sc3nc(-c4ccco4)nn3c2=O)o1`, 5.21; with `N=c1c(C(=O)NCc2ccc(F)cc2)cc2c(=O)n3ccccc3nc2n1Cc1cccnc1`, 5.49.

On to `O=C(Nc1ccc(N2CCCC2)cc1)c1ccccc1F`, for which the pIC50 is 5.16. The compound `CC12CN3CC(C)(CN(C1)C3c1ccccc1Cl)C2O` (stereo not given) gave a pIC50 of under 4.27. `COc1cc(/C=C2\SC(=O)N(c3ccc(Cl)cc3)C2=O)cc([N+](=O)[O-])c1O` gave a pIC50 of over 6.40.

For the compound `CC1C(=O)NN=C1C(=O)N/N=C\c1ccc(O)cc1O` (stereo not given), the pIC50 was over 6.40.

`CCc1nn2c(=O)cc(COc3ccc(/C=C4\C(=N)N5N=C(C)SC5=NC4=O)cc3)nc2s1` showed a pIC50 of 5.42. For the compound `[O-][n+]1onc2c1CCC(=N/O)/C2=N\Nc1ccccc1`, the pIC50 was 5.97. The compound `CC(=O)c1ccc(NC(=O)CSc2nnc(-c3ccco3)c(-c3ccco3)n2)cc1` gave a pIC50 of 5.23. `Nc1cccnc1Sc1cc(Cl)c(Cl)cc1Cl` gave a pIC50 of under 4.27.

On to `Oc1c(Cl)cc(Cl)cc1/C=C/c1ccc2cccc(O)c2n1`, for which the pIC50 was under 4.27. Turning to `Fc1cc(F)c2nc(Nc3nc4cc5c(cc4s3)OCO5)sc2c1`, the pIC50 was over 6.40.

In turn, `CCn1c(SCc2nc3sc(C(=O)O)c(C)c3c(=O)[nH]2)nc2ccccc21` gave a pIC50 of 5.48. With `COc1ccc(C(=O)Nc2nc3c(s2)Cc2cc(OC)ccc2-3)cc1` the figure was 5.39; with `CCc1ccc(-n2cccc2/C=C2/C(=N)N3C(=NC2=O)SN=C3S(C)(=O)=O)cc1`, 5.35; with `CNc1ccc(Br)cc(C(=O)/C=C/c2cc(OC)ccc2OC)c1=O`, 5.76. Turning to `COCCCNC(=O)/C(C#N)=C/c1ccc(OCC(=O)O)c(OC)c1`, the pIC50 was 5.46. With `O=C(CSc1nnc(-c2ccco2)c(-c2ccco2)n1)Nc1ccccc1` the figure was 5.53. Consider `CC(C)CNC(=O)c1c(N)n(Cc2ccco2)c2nc3ccccc3nc12`, for which the pIC50 is under 4.27. With `Oc1ccc(/C=N/NC(=S)Nc2cccnc2)c(O)c1O` the figure was over 6.40; with `O=C1OCC2OC(O)C(O)C(O)C2OC(=O)c2cc(O)c(O)c(O)c2-c2c(O)c(O)c3oc(=O)c4c(c(O)c(O)c5oc(=O)c2c3c54)-c2c1cc(O)c(O)c2O` (stereo not given), over 6.40. Compound `COc1ccc(OC)c2c1C(=O)C(Cl)=C(Cl)C2=O` showed a pIC50 of over 6.40. With `O=C1NC(=O)C(=Cc2ccc(-c3cc(Cl)ccc3[N+](=O)[O-])o2)C(=O)N1` the figure was 5.49; with `O=C(O)C1Nc2c(C(=O)N3CCOCC3)cccc2C2C=CCC12` (stereo not given), under 4.27; with `Cc1csc(NC(=O)c2cc(-c3ccco3)nc3ccccc23)n1`, 5.54. With `Cc1ccc(C(=O)NNc2c3ccccc3nc3ccccc23)cc1` the figure was 5.00; with `O=C1NC(=S)N/C1=C/c1ccc(-c2c(Br)cc([N+](=O)[O-])cc2Br)o1`, 5.84; with `Cc1ccc(/C=C/C(=O)NCc2ccccn2)o1`, 5.31.

Consider `c1cncc(C2Nc3cccc4cccc(c34)N2)c1`, for which the pIC50 is 5.14.

In turn, `N=C1CCC(=N)c2c1c(O)c1ccccc1c2O` had a pIC50 of under 4.27. For the compound `N#Cc1c(NC(=O)CSc2ncnc3sccc23)oc(-c2ccco2)c1-c1ccco1`, the pIC50 was 5.49. `O=C(CSc1ccsc1[N+](=O)[O-])Nc1cccc(F)c1` gave a pIC50 of 5.58.

Take `Cc1cc(C(=O)N/N=C/c2ccc(O)c([N+](=O)[O-])c2)c(C)n1-c1ccc(F)cc1`: the pIC50 is 5.63. `Cc1ccc(-n2cccc2/C=C2/C(=N)N3C(=NC2=O)SN=C3S(C)(=O)=O)cc1Cl` gave a negative logarithm of the IC50 (pIC50) of 5.96. The compound `O=C1NC(=S)NC(=O)C1=Cc1cccn1-c1ccc(O)cc1` showed a negative-log IC50 (pIC50) of 5.47. In the case of `Oc1ccc(/C=N/N=C(c2ccccc2)c2ccccc2)c(O)c1O`, the pIC50 is over 6.40. `Nc1cccc(C2=Nc3cccc4cccc(c34)N2)c1` gave a pIC50 of over 6.40. In turn, `N#Cc1c(NC(=O)c2cccc(S(=O)(=O)Nc3ccc(C(=O)O)cc3)c2)sc2c1CCCC2` gave a pIC50 of 5.02.

What is called pIC50 is the negative decadic logarithm of the IC50, by convention in mol/L. Higher therefore signals a low IC50.
